From patent publication US4623649A, “Substituted β-carbolines, and use thereof as medicinal agents” (Schering Aktiengesellschaft, priority 1983, dated 1986)

Molecular target: benzodiazepine receptors
Assay: not given
Conditions: footnote * Nature 294(1981)472; cited from earlier work

For `COC(=O)c1cc2c(cn1)[nH]c1ccccc12` [CO2 Me, H, H, H], the “IC50, displacement of specific binding of 3H flunitrazepam (in vitro), entry footnoted Nature 294(1981)472” value is given as 1.9 ng/mL.

Test system: benzodiazepine receptor
Assay: in vivo reduction of specific binding of 3H flunitrazepam to the benzodiazepine receptor in living brain, mice
Design: unit not given beside the values
Conditions: normally subcutaneous, 3H flunitrazepam i.v. after 15 minutes, sacrificed after another 20 minutes

First: 4-methoxymethyl-6-(1- and 2-cyclohexen-4-yl)-β-carboline-3-carboxylic acid ethyl ester
Second: 6-(1- and 2-cyclohexen-4-yl)-4-methoxymethyl-3-(3-ethyl-1,2,4-oxadiazol-5-yl)-β-carboline
The “ED50, reduction of specific binding of flunitrazepam to 50% of control (in vivo)” value of the first is lower: 0.5 for the first, 1.9 for the second.

Molecular target: benzodiazepine receptors
Assay: in vitro displacement of 3H flunitrazepam (or 3H diazepam) from benzodiazepine receptors, rat cerebrum suspension
Type: binding
Conditions: rat cerebral membrane suspension, 3H flunitrazepam 1.0 nM, 0° C., pH 7.1

Going from `CCOC(=O)c1ncc2[nH]c3ccc(C4CCCCC4)cc3c2c1C` to `CCOC(=O)c1ncc2[nH]c3ccc(C4=CCCCCCC4)cc3c2c1C`, the “IC50, displacement of specific binding of 3H flunitrazepam (in vitro)” value rises from 12 ng/mL to 19 ng/mL (1.6-fold).

Going from `CCOC(=O)c1cc2c(cn1)[nH]c1ccc(C(C)C)cc12` to `CCOC(=O)c1ncc2[nH]c3ccc(C4CCCC(=O)C4)cc3c2c1C` (stereo not drawn), the “IC50, displacement of specific binding of 3H flunitrazepam (in vitro)” value falls from 0.9 ng/mL to 0.6 ng/mL (1.5-fold).

Compared with “4-methoxymethyl-6-(1- and 2-cyclohexen-4-yl)-β-carboline-3-carboxylic acid ethyl ester”, “6-(1- and 2-cyclohexen-4-yl)-4-methoxymethyl-3-(3-ethyl-1,2,4-oxadiazol-5-yl)-β-carboline” is 2.1-fold higher in “IC50, displacement of specific binding of 3H flunitrazepam (in vitro)” value: 0.7 ng/mL for the first, 1.5 ng/mL for the second.

Compared with `CCOC(=O)c1ncc2[nH]c3cccc(Cc4ccccc4)c3c2c1COC` [CO2 Et, CH2 OCH3, CH2C6 H5, H, 5-benzyl-4-methoxymethyl-β-carboline-3-carboxylic acid ethyl ester], `CCOC(=O)c1ncc2[nH]c3ccc(C(C)(C)C)cc3c2c1C` [CO2 Et, Me, H, C(CH3)3, 6-tert-butyl-4-methyl-β-carboline-3-carboxylic acid ethyl ester] is 15-fold higher in “IC50, displacement of specific binding of 3H flunitrazepam (in vitro)” value: 0.5 ng/mL for the first, 7.5 ng/mL for the second.

For `CCOC(=O)c1ncc2[nH]c3ccc(CCc4ccccc4)cc3c2c1C` [CO2 Et, Me, H, CH2CH2C6 H5, 6-phenethyl-4-methyl-β-carboline-3-carboxylic acid ethyl ester], the “IC50, displacement of specific binding of 3H flunitrazepam (in vitro)” value was 14 ng/mL.
